tested on: benzodiazepine receptors; test: in vivo displacement of 3H-flunitrazepam from brain benzodiazepine receptors in mice; conditions: female NMR mice, i.p.; 3H-FNM i.v. 15 min after test substance; forebrain 20 min later; dose inhibiting 50% of specific 3H-FNM binding
Source text: The pharmaceutical properties of the compounds of the invention can be illustrated by determining their capability for displacing radioactive labelled flunitrazepam from benzodiazepine receptors.
The displacement activity of the compounds of the invention may be found by determining the ED50 value. The ED50 value represents the dose (mg/kg) of a test substance which causes the specific binding of flunitrazepam to benzodiazepine receptors in a living brain to be reduced to 50% of the control value.
Such an in vivo test is carried out as follows:
Principle. Twenty minutes after a dose of ^3 H-flunitrazepam (^3 H-FNM) (200 μCi/kg, i.v.) the amount of specific ^3 H-FNM binding to brain benzodiazepine receptors has reached its maximal value.
Test procedure. Suspensions of test substances (2 mg/ml) are prepared in 5% Duphasol-X (TM Duphar, castor oil-ethylene oxide derivative for emulsifying and solubilizing oil and other water-insoluble substances) by sonification for 10 min using a Branson B15 microtip ultrasonifier (setting 7). Groups of three mice (female, NMR, 18-22 grams) are injected with the test substance at 100 mg/kg intraperitoneally. Fifteen minutes after test substance administration the mice are challenged with 4 μCi intravenously of ^3 H-FNM (70-90) Ci/mole) in 200 μl physiological saline. Twenty minutes after ^3 H-FNM administration mice are sacrificed by decapitation, the forebrains rapidly excised (within 30 sec) and homogenized in 12 ml of icecold 25 mM KH2 PO4, pH 7.1, using an Ultra-Turrax homogenizer fitted with an N 10 shaft. […] The amounts of radioactivity on the filters are determined by conventional scintillation counting. […]
Results. The ED50 value is determined from dose response curves. If only one dose of test substance is administered the ED50 value is calculated as follows, provided that the inhibition of specific binding is within the range of 25-75%: [formula] where Co is specific binding in controls and Cx is specific binding in mice treated with test substance.

SMILES | ED50
CC(C)n1c(=O)c2c(-c3cc(C4CC4)on3)ncn2c2ccccc21 [Compound 8, 3-(5-cyclopropyl-3-isoxazolyl)-4,5-dihydro-5-isopropyl-4-oxo-imidazo[1,5-a]quinoxaline] | 1,8 mg/kg
COc1cccc(Cn2c(=O)c3c(-c4cc(C)no4)ncn3c3ccccc32)c1 [Compound 27, 4,5-dihydro-5-(3-methoxybenzyl)-3-(3-methyl-5-isoxazolyl)-4-oxo-imidazo[1,5-a]quinoxaline] | 0,45 mg/kg
CC(C)=CCn1c(=O)c2c(-c3cc(C)no3)ncn2c2ccccc21 [Compound 29, 4,5-dihydro-5-(3,3-dimethylallyl)-3-(3-methyl-5-isoxazolyl)-4-oxo-imidazo[1,5-a]quinoxaline] | 0,37 mg/kg

— patent US5116841A, “Imidazoquinoxalines and their preparation and use” (Novo Nordisk A/S, priority 1989, dated 1992)
